Source: patent US11655450B2, “Method for inducing differentiation of stem cell into dopaminergic neural precursor cell” (S-BIOMEDICS, priority 2019, dated 2023)

Key:
[1] = system: FOXA2 and/or LMX1A; assay: Immunocytochemistry of FOXA2 and/or LMX1A expression during differentiation into dopaminergic neural precursor cells; format: cell-based, human
Protocol: Cells were fixed for 10 min in a 4% paraformaldehyde solution.
In order to smoothly penetrate into the cytoplasm, […] incubated with 0.1% Trition X-100 (in PBS) for 15 min and then with 2% bovine serum albumin (BSA, in PBS) for 1 hour at room temperature.
Subsequently, the primary antibodies (see Table 1, below) were allowed to bind to the cells at 4° C. Secondary antibodies suitable for the respective primary antibody species (see Table 1, below) were used to confirm the primary antibody-bound cells.
Finally, cell nuclei were imaged. In this regard, the cells were incubated with 4′, […] (DAPI) in PBS for 10 min to stain the nuclei which were then imaged under a fluorescence microscope. Important markers were identified and analyzed.
The cells were differentiated into dopaminergic neural precursor cells in the same manner as the method of the present invention, with the exception of treating the cells with SAG and CHIR99021 at respective concentrations of 0.5 μM and 1.0 μM, or 1.0 μM and 1.5 μM, instead of 1.0 μM and 2.0 μM. With the expression of FOXA2 and/or LMX1A, this method was compared to the method of the present disclosure.

[2] = system: stem cells; assay: Cell adhesion test with ECM; format: cell-based, human
Protocol: With respect to CELLstart and various concentrations (2-7 μg/mL) of ECM (Laminin 521), stem cells were cultured using the same protocol as in the above Examples to conduct a cell adhesion test.

Cc1c[nH]c(-c2cnc(NCCNc3ccc(C#N)cn3)nc2-c2ccc(Cl)cc2Cl)n1 [CHIR99021, 6-[[2-[[4-(2,4-dichlorophenyl)-5-(5-methyl-1H-imidazol-2-yl)-2-pyrimidinyl]amino]ethyl]amino]-3-pyridinecarbonitrile]
expression of LMX1A and En-1 ([1]; markers for dopaminergic neural precursor cells, as illustrated in the Example section): upregulate the expression of LMX1A and En-1

CNC1CCC(N(Cc2cccc(-c3ccncc3)c2)C(=O)c2sc3ccccc3c2Cl)CC1.Cl.Cl.O.O (centres unmarked) [SAG]
expression of FOXA2 ([1]; marker for dopaminergic neural precursor cells, as explained in the Example section): upregulate the expression of FOXA2

Laminin-521: ECM (Laminin 521) used to coat culture dishes
cell adhesion ([2]; 2 μg/mL and 3 μg/mL): too poor adhesion to conduct the test | cell adhesion ([2]; 4 μg/mL and 5 μg/mL): relatively high adhesion | cell state on ECM ([2]; 6 μg/mL and 7 μg/mL): spontaneous differentiation at high frequency
